From ChEMBL document CHEMBL1146251, “Synthesis and SAR of p38alpha MAP kinase inhibitors based on heterobicyclic scaffolds” (Bioorg Med Chem Lett, 2007) come the findings set out here.

The experiment has as its target Mitogen-activated protein kinase 14 (Homo sapiens, UniProt Q16539). Put plainly: Inhibition of p38-alpha MAP kinase.

Chain of Mitogen-activated protein kinase 14 (Q16539 whole entry): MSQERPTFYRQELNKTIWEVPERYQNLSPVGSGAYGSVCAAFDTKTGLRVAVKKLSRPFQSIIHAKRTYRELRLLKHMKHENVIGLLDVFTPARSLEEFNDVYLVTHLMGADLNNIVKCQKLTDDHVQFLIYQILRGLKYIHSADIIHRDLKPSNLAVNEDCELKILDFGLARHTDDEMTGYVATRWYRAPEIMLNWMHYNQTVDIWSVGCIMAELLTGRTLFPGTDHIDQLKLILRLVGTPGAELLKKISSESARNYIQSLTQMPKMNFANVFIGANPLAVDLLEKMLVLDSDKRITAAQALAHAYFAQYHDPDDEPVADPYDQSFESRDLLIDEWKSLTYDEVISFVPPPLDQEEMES

By IC50 is commonly meant the concentration at which inhibition is half-maximal. The low end stands for higher potency, the high end for lower potency. `O=C(c1c(F)cccc1F)N1CCc2c(cnn2-c2ccccc2Cl)C1` came in with an IC50 of 68 nM. With `COc1nc2[nH]ccc2cc1C(=O)N1CCn2c(cnc2-c2ccc(F)cc2F)C1` the figure was 164 nM; with `COc1nc2[nH]cc(C(=O)C(=O)N(C)C)c2cc1C(=O)N1CCn2c(cnc2-c2ccc(F)cc2F)C1`, 29 nM; with `CN(C)C(=O)C(=O)c1c[nH]c2cc(Cl)c(C(=O)N3CCn4c(cnc4-c4ccc(F)cc4F)C3)cc12`, 11 nM. The same measure for `CC(C)n1ccc2cc(C(=O)N3CCc4c(cnn4-c4ccccc4Cl)C3)ccc21`: 39 nM; for `CN(C)C(=O)C(=O)c1cn(C)c2cc(Cl)c(C(=O)N3CCc4c(ncnc4-c4ccc(F)cc4F)C3)cc12`: 195 nM. With `O=C(c1c[nH]c2ccccc12)N1CCc2c(cnn2-c2ccccc2Cl)C1` the figure was 55 nM; with `O=C(c1ccc(F)cc1F)N1CCn2c(cnc2-c2ccc(F)cc2F)C1`, 593 nM; with `Cn1ccc2cc(C(=O)N3CCn4c(cnc4-c4ccc(F)cc4F)C3)c(Cl)cc21`, 50 nM. Turning to `COc1nc2[nH]ccc2cc1C(=O)N1CCc2c(cnn2-c2ccccc2Cl)C1`, the IC50 was 137 nM. With `Cn1ccc2cc(C(=O)N3CCc4c(cnn4-c4ccccc4Cl)C3)c(Cl)cc21` the figure was 26 nM; with `COc1nc2[nH]cc(C(=O)C(=O)N(C)C)c2cc1C(=O)N1CCc2c(cnn2-c2ccccc2Cl)C1`, 29 nM; with `CN(C)C(=O)C(=O)c1cn(C)c2cc(Cl)c(C(=O)N3CCn4c(cnc4-c4ccc(F)cc4F)C3)cc12`, 14 nM. The same measure for `COc1nc2c(cc1C(=O)N1CCn3c(cnc3-c3ccc(F)cc3F)C1)c(C(=O)C(=O)N1CCC(O)C1)cn2C` (racemic): 16 nM; for `O=C(c1cccc2[nH]ccc12)N1CCc2c(cnn2-c2ccccc2Cl)C1`: 37 nM; for `O=C(c1c(Cl)cccc1Cl)N1CCc2c(cnn2-c2ccccc2Cl)C1`: 112 nM. Turning to `O=C(c1ccc2cc[nH]c2c1)N1CCc2c(cnn2-c2ccccc2Cl)C1`, it took 40 nM to reach half-maximal inhibition (IC50). The same measure for `CN(C)C(=O)C(=O)c1cn(C)c2cc(Cl)c(C(=O)N3CCc4c(cnn4-c4ccccc4Cl)C3)cc12`: 33 nM; for `O=C(c1cc2ccccc2[nH]1)N1CCc2c(cnn2-c2ccccc2Cl)C1`: 154 nM. In turn, `Cn1cc(C(=O)N2CCc3c(cnn3-c3ccccc3Cl)C2)c2ccccc21` gave an IC50 of 40 nM.

As for `COc1cc2c(cc1C(=O)N1CCn3c(cnc3-c3ccc(F)cc3F)C1)c(C(=O)C(=O)N(C)C)cn2C`, the IC50 came to 13 nM.

`Cn1ccc2cc(C(=O)N3CCc4c(cnn4-c4ccccc4Cl)C3)ccc21` had an IC50 of 30 nM. The same measure for `O=C(c1c(F)cccc1F)N1CCc2c(cnn2-c2ccc(F)cc2Cl)C1`: 97 nM.

In turn, `COc1cc2c(ccn2C)cc1C(=O)N1CCn2c(cnc2-c2ccc(F)cc2F)C1` returned an IC50 of 38 nM. For `O=C(c1c(F)cccc1F)N1CCn2c(cnc2-c2ccc(F)cc2F)C1`, the IC50 came out at 167 nM. Molecule `CN(C)C(=O)C(=O)c1c[nH]c2ccc(C(=O)N3CCc4c(cnn4-c4ccccc4Cl)C3)cc12` returned an IC50 of 37 nM.
